In patent publication US20240384250A1, “FIBROBLAST GROWTH FACTOR 23 MODULATING COMPOUNDS” (THE UAB RESEARCH FOUNDATION, priority 2021, published 2024):
Entries after “also recorded” stand apart in the source; their conditions may differ.

System: adult rat ventricular myocytes (ARVMs)
Test: Calcium transients and cell shortening in adult rat ventricular myocytes
Assay type: cell-based
Experimental: As done before,^69 adult male Wistar rats (150-200 g) were killed and hearts were quickly removed and cannulated via the ascending aorta on a Langendorff system where they were retrograde perfused and digested by type II collagenase. Hearts were perfused with calcium-free Tyrode's solution supplemented with 0.2 mmol/L of ethyleneglycol-bis-((3-aminoethylether)-N,N, N′,N′-tetraacetic acid for 3 minutes. For the digestion, hearts were perfused with Tyrode's solution containing 0.1 mmol/L of CaCl2), 1 mg/ml of type II collagenase (Worthington), and 1 mg/ml of BSA for 3 to 4 minutes at room temperature. Cells were resuspended in Tyrode's solution containing 1 mmol/L of CaCl2). Tyrode's solution contains 130 mM NaCl, 5.4 mM KCl, 0.4 mM NaH2PO4, 0.5 mM MgCl2, 25 mM N-2-hydroxyethylpiperazine-N-2-ethanesulfonic acid, and 22 mM glucose. Adult rat ventricular myocytes (ARVMs) were loaded with the fluorescent Ca^2+ dye Fluo-3 AM (Thermo Fisher Scientific) for cytosolic Ca^2+ measurements. Loaded ARVMs were acutely perfused during 2 minutes with vehicle, FGF23 (10 ng/ml), or a combination of FGF23 and heparin (0.7 USP/ml). Cytosolic Ca^2+ transients were recorded under 1 Hz of field stimulation using 2 parallel platinum electrodes. Images were obtained with confocal microscopy (Zeiss LSM 510-META microscope), using a 40× objective by scanning the cell with an argon laser every 1.54 ms. Fluo-3 AM was excited at 488 nm, and emissions were collected at >505 nm. Cell contraction was stimulated as the difference in cell length between rest and contraction (during electrical stimulation), expressed as a percentage of shortening of the cell length. Image analysis was performed with self-made routines using IDL (Research Systems) and ImageJ (v1.53) software.

heparin [reference compound]
FGF23 effect on [Ca2+]i transients in the presence of heparin (FGF23 10 ng/ml with heparin 0.7 USP/ml): became statistically significant; also recorded: significantly increased | FGF23 effect on cell shortening with addition of heparin (FGF23 with heparin): significantly increased the effect of FGF23 | [Ca2+]i transients, heparin by itself (heparin 0.7 USP/ml): no significant effects | cell shortening, heparin by itself (heparin alone): no significant effects
